Source: patent publication US7132447B2, “Substance FKI-1083 and process for producing the same” (The Kitasato Institute, priority 2001, dated 2006)
In brackets after ≈: the same amount, converted by molar mass.

Experiments:
[1] = tested on: Candida albicans KF1; assay: MIC by agar plate dilution method on nutrient agar medium; assay type: cell-based
[2] = tested on: Escherichia coli NIHJ; assay: as above; assay type: cell-based
[3] = tested on: Artemia salina; assay: Anthropodicidal activity, movement of nauplius larvae observed under microscope in 96 well plate; assay type: in vivo
Experimental: (§1) Methanol solution of FKI-1083 substance of the present invention was added to a 96 well plate (Corning Inc., the U.S.). […] A test medium (lecithin 0.01%, sodium hydrogen carbonate 7.5 mM, potassium chloride 7.5 mM, calcium chloride dihydrate 7.5 mM, and magnesium sulfate heptahydrate 7.5 mM) 250 μl was added thereto and shaken for 15 minutes. Approximately 10 Caenorhabditis elegans cultured on the agar medium for nematode growth [a medium in which E. coli was cultured on a medium consisting of bactoagar (DIFCO Inc., the U.S.) 1.7%, bactopeptone (DIFCO Inc., the U.S.) 0.5%, yeast extract (DIFCO Inc., the U.S.) 1.0%, sodium chloride 0.3%, cholesterol 0.0005%, calcium chloride 0.007%, magnesium sulfate 0.03%, dipotassium hydrogen phosphate 0.34%, and potassium dihydrogen phosphate 0.11%] were added thereto. Separately, a buffer solution 50 μl containing several numbers of nauplius larvae of Artemia salina hatched in the buffer (Tris 0.24%, sodium chloride 2.57%, magnesium chloride 0.47%, potassium chloride 0.07%, sodium carbonate 0.02%, magnesium sulfate 0.64% and calcium chloride 0.11%, pH 7.1) was added. Conditions of these nematode and arthropod were observed under microscope. […] Consequently, FKI-1083 substance of the present invention is useful as anthelmintic and insecticide.

[4] = tested on: Escherichia coli NIHJ JC-2 (IF012734); assay: MIC by agar plate dilution method on nutrient agar medium; assay type: cell-based; conditions: NIHJJC2
[5] = tested on: Caenorhabditis elegans; assay: Nematocidal activity, movement observed under microscope in 96 well plate; assay type: in vivo
Experimental: as §1

[6] = tested on: Xanthomonas campestris pv. oryzae KB88; assay: microbe, parasite or virus in culture; assay type: cell-based
[7] = tested on: Aspergillus niger ATCC6275; assay: MIC by agar plate dilution method on nutrient agar medium; assay type: cell-based
[8] = biological target: NADH-fumarate reductase; assay: NADH-fumarate reductase inhibitory activity, Ascaris suum muscle mitochondria fraction, NADH absorption at 340 nm; assay type: biochemical; conditions: 37° C., pH 7.0, read-out: concentration showing 50% inhibition of NADH-fumarate reductase activity
Experimental: Ascaris suum muscle was homogenized in 120 mM sodium phosphate solution (pH 7.0) and centrifuged at 3000×g for 10 minutes to collect the supernatant solution. The solution was further centrifuged at 10000×g for 20 minutes to collect the precipitate. The precipitate was suspended in 120 mM sodium phosphate solution (pH 7.0) to prepare mitochondria fraction. 50% dimethyl sulfoxide solution of FKI-1083 substance 10 μl was added to 96 well microplate. 120 mM sodium phosphate solution (pH 7.0) 80 μl containing 0.35 mM NADH and 7.2 mM disodium fumarate was added thereto and preincubated at 37° C. for 5 minutes in the microplate reader ELX808 (Bio-Tek Industries Inc., the U.S.). Mitochondria fraction of Ascaris suum muscle 10 μl (0.3 mg protein) was added thereto, incubated at 37° C. for 10 minutes and measured absorption of NADH at 340 nm in every 15 seconds. A gradient of the decrease in absorption at 340 nm was assayed as NADH-fumarate reductase activity. […] Consequently, FKI-1083 substance can be expected as a composition for treatment or prevention of helminthiasis.

[9] = tested on: Micrococcus luteus ATCC9341; assay: MIC by agar plate dilution method on nutrient agar medium; assay type: cell-based
[10] = tested on: Staphylococcus aureus ATCC6538p; assay: as above; assay type: cell-based
[11] = tested on: Pseudomonas aeruginosa IF03080; assay: as above; assay type: cell-based
[12] = tested on: Mucor racemosus IF04581; assay: as above; assay type: cell-based
[13] = tested on: Mycobacterium smegmatis ATCC607; assay: as above; assay type: cell-based; conditions: Mycolicibacterium smegmatis
[14] = tested on: Saccharomyces cerevisiae KF26; assay: as above; assay type: cell-based
Description: Minimum inhibitory concentration (MIC) of FKI-1083 substance of the present invention against various microorganisms on nutrient agar medium by agar plate dilution method is shown in Table 3.

[15] = tested on: Bacillus subtilis ATCC6633; assay: as above; assay type: cell-based

## CCCCCCCC/C(C)=C/Cc1oc(OC)c(C)c(=O)c1C [FKI-1083 substance]
[1]
  MIC: > 100 µg/mL
[2]
  MIC: > 100 µg/mL
[3]
  concentration at which movement was inhibited: 2 µg/mL
[4]
  MIC: > 100 µg/mL
[5]
  concentration at which movement was inhibited: 20 µg/mL
[6]
  MIC: > 100 µg/mL
[7]
  MIC: > 100 µg/mL
[8]
  IC50: 4.1 nM
[9]
  MIC: 6.25 µg/mL (≈ 19.5 µM)
[10]
  MIC: 6.25 µg/mL (≈ 19.5 µM)
[11]
  MIC: > 100 µg/mL
[12]
  MIC: > 100 µg/mL
[13]
  MIC: 12.5 µg/mL (≈ 39 µM)
[14]
  MIC: > 100 µg/mL
[15]
  MIC: 6.25 µg/mL (≈ 19.5 µM)
